Like-named read-outs stand apart in the source and are kept apart here.
What was measured:
Candida albicans = assay: Rat systemic candidiasis model (Fluconazole resistance); type: in vivo; conditions: day 14 after infection
Text: (§1) Male Fisher rats, strain F344/DuCrj, were employed for experimental infection models such as systemic candidiasis, systemic aspergillosis and pulmonary aspergillosis model. Immunocompetent 4 weeks old rats were used for systemic candidiasis or systemic aspergillosis which occurred after infection with Candida albicans conidia of 5×10^6/rat or with Aspergillus fumigatus conidia of 6×10^5/rat via tail vein. Otherwise for pulmonary aspergillosis model, rats had been immunosuppressed with cortisone acetate treatments prior to infection with 2×10^5/rat intratrachially. Treatments were given twice on the first day and once daily on following 4 days both for systemic and pulmonary aspergillosis (Ib.i.+4q.d.), for systemic candidiasis rats were treated at 0, 4, 24, and 48 h after infection (Ib.i.d.+2q.d.). Effective dose 50% (ED50) values were determined on day 14 after infection.

C. tropicalis CY5042 = assay: Rat systemic mycosis, C. tropicalis CY5042; type: in vivo; conditions: for ED50: Candida tropicalis, CY5042, 336 h, read-out: Rat systemic mycosis ED50 on day 14, C. tropicalis CY5042
[1] = type: in vitro ADME; conditions: human
Aspergillus fumigatus = assay: Rat systemic aspergillosis model; type: in vivo; conditions: day 14 after infection
Text: as §1

[2] = tested on: FCZ^R - C. albicans UTHS93-2067; assay: Rat systemic mycosis, FCZ^R C. albicans UTHS93-2067; type: in vivo; conditions: for ED50: Candida albicans, 336 h, read-out: Rat systemic mycosis ED50 on day 14, FCZ^R - C. albicans UTHS93-2067
Text: as §1

C. albicans CY3003 = assay: Rat systemic mycosis, C. albicans CY3003; type: in vivo; conditions: for ED50: Candida albicans, CY3003, 336 h, read-out: Rat systemic mycosis ED50 on day 14, C. albicans CY3003
Text: as §1

C. parapsilosis KULM219C = assay: Rat systemic mycosis, C. parapsilosis KULM219C; type: in vivo; conditions: for ED50: Lodderomyces parapsilosis, KULM219C, 336 h, read-out: Rat systemic mycosis ED50 on day 14, C. parapsilosis KULM219C
C. albicans CY1002 = assay: Rat systemic mycosis, C. albicans CY1002; type: in vivo; conditions: for ED50: Candida albicans, CY1002, 336 h, read-out: Rat systemic mycosis ED50 on day 14, C. albicans CY1002
Text: as §1

A. fumigatus CF1003 = assay: Rat systemic mycosis, A. fumigatus CF1003; type: in vivo; conditions: for ED50: Aspergillus fumigatus, CF1003, 336 h, read-out: Rat systemic mycosis ED50 on day 14, A. fumigatus CF1003
Text: as §1

Solubility (Table 1) = conditions: solvent a = distilled water
[3] = rat

CNCC(=O)OCc1cccnc1N(C)C(=O)OC(C)[n+]1cnn(C[C@](O)(c2cc(F)ccc2F)[C@@H](C)c2nc(-c3ccc(C#N)cc3)cs2)c1.Cl.[Cl-] (stereo partly drawn) [Example 7, 1-[[N-methyl-N-3-[(methylamino)acetoxymethyl]pyridin-2-yl]carbamoyloxy)ethyl-1-[(2R,3R)-2-(2,5-difluorophenyl)-2-hydroxy-3-[4-(4-cyanophenyl)thiazol-2-yl]butyl]-1H-[1,2,4]triazol-4-ium chloride hydrochloride]
ED50, Systemic Fluconazole resistance candidiasis (Candida albicans; i.v.): 13.3 µmol/kg | ED50, Systemic Fluconazole resistance candidiasis (Candida albicans; p.o.): 14.1 µmol/kg | Rat systemic mycosis ED50 on day 14, C. tropicalis CY5042 (C. tropicalis CY5042; I.V.): 1 µmol/kg | Rat systemic mycosis ED50 on day 14, C. tropicalis CY5042 (C. tropicalis CY5042; PO.): 1 µmol/kg | Conversion (half-life) to (2R,3R)-3-[4-(4-cyanophenyl)thiazol-2-yl)]-2-(2,5-difluorophenyl)-1-(1H-1,2,4-triazol-1-yl)-butan-2-ol (u) in plasma [1]: <2 min in human plasma | ED50, Systemic aspergillosis (Aspergillus fumigatus; i.v.): 13.5 µmol/kg | ED50, Systemic aspergillosis (Aspergillus fumigatus; p.o.): 8.8 µmol/kg | Rat systemic mycosis ED50 on day 14, FCZ^R - C. albicans UTHS93-2067 ([2]; I.V.): 2.8 µmol/kg | Rat systemic mycosis ED50 on day 14, FCZ^R - C. albicans UTHS93-2067 ([2]; PO.): 7 µmol/kg | Rat systemic mycosis ED50 on day 14, C. albicans CY3003 (C. albicans CY3003; I.V.): 1.6 µmol/kg | Rat systemic mycosis ED50 on day 14, C. albicans CY3003 (C. albicans CY3003; PO.): 2.5 µmol/kg | Rat systemic mycosis ED50 on day 14, C. parapsilosis KULM219C (C. parapsilosis KULM219C; I.V.): 7.6 µmol/kg | Rat systemic mycosis ED50 on day 14, C. parapsilosis KULM219C (C. parapsilosis KULM219C; PO.): 6.5 µmol/kg | Rat systemic mycosis ED50 on day 14, C. albicans CY1002 (C. albicans CY1002; I.V.): 4 µmol/kg | Rat systemic mycosis ED50 on day 14, C. albicans CY1002 (C. albicans CY1002; PO.): 4 µmol/kg | Rat systemic mycosis ED50 on day 14, A. fumigatus CF1003 (A. fumigatus CF1003; I.V.): 11 µmol/kg | Rat systemic mycosis ED50 on day 14, A. fumigatus CF1003 (A. fumigatus CF1003; PO.): 9 µmol/kg

CCC(C)n1ncn(-c2ccc(N3CCN(c4ccc(OCC5COC(Cn6cncn6)(c6ccc(Cl)cc6Cl)O5)cc4)CC3)cc2)c1=O (stereo not shown) [Itraconazole, 4-[4-[4-[4-[[2-(2,4-Dichlorophenyl)-2-(1H-1,2,4-triazol-1-ylmethyl)-1,3-dioxolan-4-yl]methoxy]phenyl]-1-piperazinyl]phenyl]-2,4-dihydro-2-(1-methylpropyl)-3H-[1,2,4]triazol-3-one, reference compound]
ED50 (C. tropicalis CY5042; PO.): 2 µmol/kg | ED50 (Aspergillus fumigatus; Aspergillus fumigatus, po, 336 h, p.o.): 4.9 µmol/kg | ED50 ([2]; PO.): 4.2 µmol/kg | ED50 (C. albicans CY3003; PO.): 2.3 µmol/kg | ED50 (C. parapsilosis KULM219C; PO.): 20 µmol/kg | ED50 (C. albicans CY1002; PO.): 4.7 µmol/kg | ED50 (A. fumigatus CF1003; PO.): 8.9 µmol/kg

CNCC(=O)OCc1cc(F)ccc1N(C)C(=O)OC(C)[n+]1cnn(C[C@](O)(c2cc(F)ccc2F)[C@@H](C)c2nc(-c3ccc(C#N)cc3)cs2)c1.Cl.[I-] (stereo partly drawn) [Example 7.4., 1-[[N-methyl-N-2-(methylamino)acetoxymethyl-4-fluoro-phenyl]carbamoyloxy]ethyl-1-[(2R,3R)-2-(2,5-difluorophenyl)-2-hydroxy-3-[4-(4-cyanophenyl)thiazol-2-yl]butyl]-1H-[1,2,4]triazol-4-ium iodide hydrochloride]
Conversion (half-life) to (2R,3R)-3-[4-(4-cyanophenyl)thiazol-2-yl)]-2-(2,5-difluorophenyl)-1-(1H-1,2,4-triazol-1-yl)-butan-2-ol (u) in plasma [1]: 2 min in human plasma

CNCC(=O)OCc1c(F)cccc1N(C)C(=O)OC(C)[n+]1cnn(C[C@](O)(c2cc(F)ccc2F)[C@@H](C)c2nc(-c3ccc(C#N)cc3)cs2)c1.Cl.[Cl-] (stereo partly drawn) [Example 7.13., 1-[[N-methyl-N-2-(methylamino)acetoxymethyl-3-fluoro-phenyl]carbamoyloxy]ethyl-1-[(2R,3R)-2-(2,5-difluorophenyl)-2-hydroxy-3-[4-(4-cyanophenyl)thiazol-2-yl]butyl]-1H-[1,2,4]triazol-4-ium chloride hydrochloride]
Conversion (half-life) to (2R,3R)-3-[4-(4-cyanophenyl)thiazol-2-yl)]-2-(2,5-difluorophenyl)-1-(1H-1,2,4-triazol-1-yl)-butan-2-ol (u) in plasma [1]: 2 min in human plasma

CNCC(=O)OCc1ccc(Cl)cc1N(C)C(=O)OC(C)[n+]1cnn(C[C@](O)(c2cc(F)ccc2F)[C@@H](C)c2nc(-c3ccc(C#N)cc3)cs2)c1.Cl.[I-] (stereo partly drawn) [Example 7.10., 1-[[N-methyl-N-2-(methylamino)acetoxymethyl-5-chloro-phenyl]carbamoyloxy]ethyl-1-[(2R,3R)-2-(2,5-difluorophenyl)-2-hydroxy-3-[4-(4-cyanophenyl)thiazol-2-yl]butyl]-1H-[1,2,4]triazol-4-ium iodide hydrochloride]
Conversion (half-life) to (2R,3R)-3-[4-(4-cyanophenyl)thiazol-2-yl)]-2-(2,5-difluorophenyl)-1-(1H-1,2,4-triazol-1-yl)-butan-2-ol (u) in plasma [1]: 3 min in human plasma

OC(Cn1cncn1)(Cn1cncn1)c1ccc(F)cc1F [Fluconazole, reference compound]
ED50 (Candida albicans; Candida albicans, po, 336 h, p.o.): 21.8 µmol/kg | ED50 (C. tropicalis CY5042; PO.): 2 µmol/kg | ED50 ([2]; PO.): 8.1 µmol/kg | ED50 (C. albicans CY3003; PO.): 1 µmol/kg | ED50 (C. parapsilosis KULM219C; PO.): 17 µmol/kg | ED50 (C. albicans CY1002; PO.): 1.9 µmol/kg | ED50 (A. fumigatus CF1003; PO.): 94 µmol/kg

CC(C)NCc1ccccc1N(C)C(=O)OC(C)[n+]1cnn(C[C@](O)(c2cc(F)ccc2F)[C@@H](C)c2nc(-c3ccc(C#N)cc3)cs2)c1.Cl.[Cl-] (stereo partly drawn) [Example 6, 1-[[N-methyl-N-2-(isopropylaminomethyl)phenyl]carbamoyloxy]ethyl-1-[(2R,3R)-2-(2,5-difluorophenyl)-2-hydroxy-3-[4-(4-cyanophenyl)thiazol-2-yl]butyl]-1H-[1,2,4]triazol-4-ium chloride hydrochloride]
Solubility (Solubility (Table 1)): >10000 µg/mL

CC(=O)OCc1ccccc1N(C)C(=O)OC[n+]1cnn(C[C@](O)(c2cc(F)ccc2F)[C@@H](C)c2nc(-c3ccc(C#N)cc3)cs2)c1.[Cl-] [Example 5, [[N-methyl-N-2-(acetoxymethyl)phenyl]carbamoyloxy]methyl-1-[(2R,3R)-2-(2,5-difluorophenyl)-2-hydroxy-3-[4-(4-cyanophenyl)thiazol-2-yl]butyl]-1H-[1,2,4]triazol-4-ium chloride]
Conversion (half-life) to (2R,3R)-3-[4-(4-cyanophenyl)thiazol-2-yl)]-2-(2,5-difluorophenyl)-1-(1H-1,2,4-triazol-1-yl)-butan-2-ol (u) in plasma [3]: <2 min in rat plasma

CNCC(=O)OCc1cc(F)c(F)cc1N(C)C(=O)OC(C)[n+]1cnn(C[C@](O)(c2cc(F)ccc2F)[C@@H](C)c2nc(-c3ccc(C#N)cc3)cs2)c1.Cl.[Cl-] (stereo partly drawn) [Example 7.3., 1-[[N-methyl-N-2-(methylamino)acetoxymethyl-4,5-difluorophenyl]carbamoyloxy]ethyl-1-[(2R,3R)-2-(2,5-difluorophenyl)-2-hydroxy-3-[4-(4-cyanophenyl)thiazol-2-yl]butyl]-1H-[1,2,4]triazol-4-ium chloride hydrochloride]
Conversion (half-life) to (2R,3R)-3-[4-(4-cyanophenyl)thiazol-2-yl)]-2-(2,5-difluorophenyl)-1-(1H-1,2,4-triazol-1-yl)-butan-2-ol (u) in plasma [1]: 6 min in human plasma

— patent US7189858B2, “N-phenyl substituted carbamoyloxyalkyl-azolium derivatives” (Basilea Pharmaceutica AG, priority 1999, dated 2007)
